Reference: patent publication US8716285B2, “N-hydroxy-benzamids for the treatment of cancer” (Hoffmann-La Roche Inc., priority 2010, dated 2014)
pEC50, pIC50: −log10 of the molar value.

Legend:
recombinant human HDAC8 = recombinant human HDAC8 (Homo sapiens (Human), UniProt Q9BY41); test: HDAC8 inhibition: recombinant HDAC8 fluorometric assay; type: biochemical; conditions: recombinant human HDAC8, substrate Ac-Arg-His-Lys-Lys(ε-acetyl)-AMC
Experimental: A competitive inhibitory assay of HDAC8 was carried out by using recombinant HDAC8 and a commercial substrate Ac-Arg-His-Lys-Lys(ε-acetyl)-AMC.
Compounds were tested for their ability to inhibit histone deacetylase 8 using an in vitro deacetylation assay. The enzyme source for this assay was recombinant human HDAC8 protein expressed and purified from insect cells. […] The substrate consisted of a commercial product Ac-Arg-His-Lys-Lys(ε-acetyl)-AMC (substrate is available from Cayman Chemical). […] In a detailed procedure, 8 μl of HDAC8 enzyme solution (0.125 μg/μl) was transferred to assay plates (CORNING 3676). 1 μl of half-log diluted compounds were added into wells and incubated for 15 min at rt. After that, 8 μl of substrate solution was transferred to the wells and incubated for 30 min at rt. After deacetylation of the substrate by incubation with HDAC8 enzyme, subsequent exposure to a developing reagent produced a fluorophore that was directly proportional to the level of deacetylation. So 4 μl of developer regent (Cayman 10006394) was added into the wells in the assay plates and incubated for 15 min. The fluorescence signal was measured by a FlexStation3 plate reader (excitation wave length 340-360 nm; emission wave length 440-465 nm). The IC50 was calculated after normalization and curve fitting using XLfit4.0 software. Inhibition %=[Mean(top)−signal(sample)]*100/[Mean(top)−Mean(bottom)].

HDAC6 = HDAC6 (Homo sapiens (Human), UniProt Q9UBN7); test: Tubulin acetylation cytoblot assay (A549 cells); type: cell-based; conditions: 17-18 h, concentration for 50% induction of acetylated tubulin, read-out: Tub-ac EC50
Experimental: Tubulin acetylation is a PD marker for HDAC6 inhibition. The extent of tubulin acetylation represents the inhibitory effect on HDAC6.
Novel compounds were tested for their ability to inhibit HDAC6 using a cell-based deacetylation assay. Tubulin acetylation was detected by the anti-acetylated tubulin antibody (Sigma) and horse radish peroxidase (HRP) conjugated secondary antibody (KangChen Bio. Tech.). […] 20 μl of diluted compound solution was transferred to the cell culture plate and incubated for 17-18 h. After medium removal and fixation by formaldehyde (3.7% paraformaldehyde in TBS), the cells in the plates were treated with 180 μl of −20° C. MeOH and incubated for 5 min at rt. The cell lysis was incubated with 75 μl of primary anti-acetylated tubulin antibody and secondary HRP conjugated antibody solution (1:750 anti-acetylated tubulin, 1:750 HRP conjugated anti-mouse IgG in antibody dilution buffer not containing sodium azide) for 4 h at 4° C. By adding the HRP substrate, enhanced chemiluminescence (ECL) reagent (GE Healthcare) generated luminescence corresponding to the level of tubulin acetylation. So that 75 μl of ECL was added into the wells and the luminescence from each well was immediately quantified by the plate reader. Based on the luminescence reading, the IC50s against HDAC6 of the tested compounds were calculated by plotting the curve with XLfit4.0 software. Inhibition %=[signal(sample)−Mean(bottom)]*100/[Mean(top)−Mean(bottom)]

[1] = test system: p21 promoter-luciferase construct; test: p21 reporter gene induction in HeLa cells transfected with p21 promoter-luciferase construct; type: cell-based; conditions: for p21 RP3: relative gene level of p21 induced compared to MS275 at 3 μM; for p21 RP10: relative level of p21 induced compared to MS275 at 10 μM; for p21 RP30: relative level of p21 induced compared to MS275 at 30 μM
Experimental: As a surrogate for in-cell HDAC1/2/3 inhibition, p21 induction was used as a counterscreen to evaluate the selectivity of the compounds in the present invention toward HDAC6 or HDAC8.
The novel compounds of the present invention were tested for their ability to induce p21 gene expression using a reporter gene assay involving HeLa cells transfected with a p21 promoter-luciferase construct. The p21 promoter contained the Sp1/Sp3 binding site for HDAC but not the upstream p53 binding site. Briefly, the day before transfection, HeLa cells were seeded at 11,000 cells/well in a 96-well culture plate and incubated at 37° C. in 5% CO2 overnight. A transfection media was prepared prior to transfection according to the following procedure: (1) 5 μl serum-free DMEM, 0.15 μl Fugene 6 reagent, 40 ng p21-luc, 10 ng GFP were mixed gently and incubated at rt for 30 minutes; (2), then 98 μl DMEM (with 10% FBS, 1% penicillin and streptomycin) was added to the DNA: Fugene 6 reagent complex and mixed gently. For transfection, the medium was removed and replaced with 100 μl/well transfection media which was prepared according to the procedure above. After incubating the cells for 24 hours at 37° C. in 5% CO2, fresh media and test compounds were added to the wells and the cells further incubated for 15 hours at 37° C. in 5% CO2. Cells were lysed by adding 80 μl/well of a cell culture lysis reagent (Promega). […] 100 μl luciferase assay reagent (Promega) was then added to every 20 μl cell lysate for luminometer detection. […] Induction activity for specific representative compounds can be found in Table 3.

Chain of recombinant human HDAC8 (Q9BY41 whole entry): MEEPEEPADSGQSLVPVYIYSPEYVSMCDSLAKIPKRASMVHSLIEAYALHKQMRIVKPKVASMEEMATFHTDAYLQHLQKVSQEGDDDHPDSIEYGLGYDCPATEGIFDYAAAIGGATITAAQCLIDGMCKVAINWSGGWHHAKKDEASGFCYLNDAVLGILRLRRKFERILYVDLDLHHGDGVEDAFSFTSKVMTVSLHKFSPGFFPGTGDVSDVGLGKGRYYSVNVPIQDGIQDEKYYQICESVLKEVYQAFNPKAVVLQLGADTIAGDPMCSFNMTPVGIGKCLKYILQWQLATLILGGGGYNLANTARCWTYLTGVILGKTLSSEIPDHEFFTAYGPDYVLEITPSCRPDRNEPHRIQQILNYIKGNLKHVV
Chain of HDAC6 (Q9UBN7 whole entry): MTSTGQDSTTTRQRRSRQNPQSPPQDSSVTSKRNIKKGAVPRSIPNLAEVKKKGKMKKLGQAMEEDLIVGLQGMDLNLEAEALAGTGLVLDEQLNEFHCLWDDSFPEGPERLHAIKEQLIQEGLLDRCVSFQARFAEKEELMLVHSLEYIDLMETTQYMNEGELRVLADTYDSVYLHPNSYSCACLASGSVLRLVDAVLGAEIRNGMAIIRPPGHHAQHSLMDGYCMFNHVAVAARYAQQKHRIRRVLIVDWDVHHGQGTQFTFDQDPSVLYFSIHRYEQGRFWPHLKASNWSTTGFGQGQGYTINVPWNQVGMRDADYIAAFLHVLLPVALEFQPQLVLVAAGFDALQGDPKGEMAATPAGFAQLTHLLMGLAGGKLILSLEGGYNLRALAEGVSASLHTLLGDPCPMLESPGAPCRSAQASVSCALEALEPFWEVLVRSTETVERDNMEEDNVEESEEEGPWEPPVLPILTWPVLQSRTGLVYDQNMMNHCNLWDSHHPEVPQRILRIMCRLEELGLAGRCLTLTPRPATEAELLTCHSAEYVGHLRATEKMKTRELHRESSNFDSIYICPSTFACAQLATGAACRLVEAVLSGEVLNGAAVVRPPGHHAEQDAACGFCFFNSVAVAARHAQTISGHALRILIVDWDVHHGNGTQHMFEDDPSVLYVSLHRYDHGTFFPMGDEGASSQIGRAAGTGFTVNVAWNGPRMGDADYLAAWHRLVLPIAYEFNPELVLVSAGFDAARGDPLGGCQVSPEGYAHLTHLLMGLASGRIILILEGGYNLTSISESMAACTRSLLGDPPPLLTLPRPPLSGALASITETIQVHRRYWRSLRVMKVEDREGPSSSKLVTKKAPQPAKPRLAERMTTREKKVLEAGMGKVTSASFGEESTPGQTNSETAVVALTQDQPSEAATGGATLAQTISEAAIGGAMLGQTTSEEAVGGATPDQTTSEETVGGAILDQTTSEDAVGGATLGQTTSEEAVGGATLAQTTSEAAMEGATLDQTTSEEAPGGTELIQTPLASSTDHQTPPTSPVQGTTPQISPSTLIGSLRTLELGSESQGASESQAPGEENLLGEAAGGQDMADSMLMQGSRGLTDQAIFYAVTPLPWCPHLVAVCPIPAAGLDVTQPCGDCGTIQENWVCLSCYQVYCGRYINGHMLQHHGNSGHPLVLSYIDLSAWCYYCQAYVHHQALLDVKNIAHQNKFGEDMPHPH

Row | Structure (SMILES) | pIC50 (recombinant human HDAC8) | pEC50 (HDAC6) | p21 RP3 [1] | p21 RP10 [1] | p21 RP30 [1]
1 | O=C(NO)c1ccc2c(c1)CC(NS(=O)(=O)c1ccc(Cl)cc1)CC2 (centres unmarked) [Example 41, 7-(4-Chloro-benzenesulfonylamino)-5,6,7,8-tetrahydro-naphthalene-2-carboxylic acid hydroxyamide] | 6.07 | 5.97 | −0.15 | 0.35 | 0.05
2 | Cc1ccc(-c2ccnc(NC3CCc4ccc(C(=O)NO)cc4C3)n2)cc1 (centres unmarked) [Example 11, 7-(4-p-Tolyl-pyrimidin-2-ylamino)-5,6,7,8-tetrahydro-naphthalene-2-carboxylic acid hydroxyamide] | 6.10 | 5.29 | −0.13 | −0.18 | −0.18
3 | O=C(NC1CCc2ccc(C(=O)NO)cc2C1)OCc1cccnc1 (centres unmarked) [Example 38] | 5.90 | 6.03 | 0.15 | 0.05 | 0.02
4 | O=C(NO)c1ccc2c(c1)CC(NC(=O)c1ccc(-c3ccccc3)cc1)CN2 (centres unmarked) [Example 59, 3-[(Biphenyl-4-carbonyl)-amino]-1,2,3,4-tetrahydro-quinoline-6-carboxylic acid hydroxyamide] | 5.55 | 5.10 | 0.20 | 0.08 | 0.15
5 | O=C(NO)c1ccc2c(c1)CC(NS(=O)(=O)c1cccc(F)c1)CN2 (centres unmarked) [Example 62, 3-(3-Fluoro-benzenesulfonylamino)-1,2,3,4-tetrahydro-quinoline-6-carboxylic acid hydroxyamide] | 5.94 |  | 0.13 | 0.02 | 0.01
6 | O=C(NO)c1ccc2c(c1)CC(Nc1ccc([N+](=O)[O-])cn1)CC2 (centres unmarked) [Example 6, 7-(5-Nitro-pyridin-2-ylamino)-5,6,7,8-tetrahydro-naphthalene-2-carboxylic acid hydroxyamide] | 6.03 | 5.68 | 0.18 | 0.03 | −0.01
7 | O=C(NO)c1ccc2c(c1)CC(Nc1nccc(C(F)(F)F)n1)CC2 (centres unmarked) [Example 8, 7-(4-Trifluoromethyl-pyrimidin-2-ylamino)-5,6,7,8-tetrahydro-naphthalene-2-carboxylic acid hydroxyamide] | 6.52 | 6.08 | −0.12 | −0.06 | −0.19
8 | CCCCS(=O)(=O)NC1CCc2ccc(C(=O)NO)cc2C1 (centres unmarked) [Example 39, 7-(Butane-1-sulfonylamino)-5,6,7,8-tetrahydro-naphthalene-2-carboxylic acid hydroxyamid] | 6.04 | 5.38 | 0.08 | 0.03 | 0.04
9 | O=C(NO)c1ccc2c(c1)CC(Nc1ccc([N+](=O)[O-])cc1)CC2 (centres unmarked) [Example 3, 7-(4-nitro-phenylamino)-5,6,7,8-tetrahydro-naphthalene-2-carboxylic acid hydroxyamide] | 5.43 | 5.73 | 0.08 | −0.08 | −0.06
10 | O=C(NO)c1ccc2c(c1)CC(Nc1nccc(-c3cccnc3)n1)CN2 (centres unmarked) [Example 53] |  | 4.93 | 0.18 | 0.03 | 0.02
11 | O=C(NO)c1ccc2c(c1)CC(NC(=O)c1ccc(Cl)c(Cl)c1)CN2 (centres unmarked) [Example 58, 3-(3,4-Dichloro-benzoylamino)-1,2,3,4-tetrahydro-quinoline-6-carboxylic acid hydroxyamide] | 5.58 | 5.27 | 0.03 | −0.03 | 0.01
12 | O=C(NO)c1cc2c(cc1F)CCC(Nc1ncccn1)C2 (centres unmarked) [Example 49, 3-Fluoro-7-(pyrimidin-2-ylamino)-5,6,7,8-tetrahydro-naphthalene-2-carboxylic acid hydroxyamide] |  | 5.37 | 0.50 | 0.08 | 0.00
13 | O=C(NO)c1ccc2c(c1)CC(NS(=O)(=O)c1cccc(OC(F)(F)F)c1)CN2 (centres unmarked) [Example 63, 3-(3-Trifluoromethoxy-benzenesulfonylamino)-1,2,3,4-tetrahydro-quinoline-6-carboxylic acid hydroxyamide] | 5.79 |  | 0.11 | 0.04 | 0.01
14 | O=C(/C=C/c1cccnc1)NC1CCc2ccc(C(=O)NO)cc2C1 (centres unmarked) [Example 37, 7-((E)-3-Pyridin-3-yl-acryloylamino)-5,6,7,8-tetrahydro-naphthalene-2-carboxylic acid hydroxyamide] | 6.00 |  | −0.18 | −0.05 | 
15 | O=C(NO)c1ccc2c(c1)CC(Nc1nccc(-c3ccc4ccccc4c3)n1)CC2 (centres unmarked) [Example 33, 7-(4-Naphthalen-2-yl-pyrimidin-2-ylamino)-5,6,7,8-tetrahydro-naphthalene-2-carboxylic acid hydroxyamide] | 5.42 |  | 0.19 | −0.20 | −0.25
16 | O=C(NO)c1ccc2c(c1)CC(NS(=O)(=O)c1cccc(Cl)c1)CC2 (centres unmarked) [Example 42, 7-(3-Chloro-benzenesulfonylamino)-5,6,7,8-tetrahydro-naphthalene-2-carboxylic acid hydroxyamide] | 6.80 |  |  |  | 
17 | COc1ccc(S(=O)(=O)NC2CNc3ccc(C(=O)NO)cc3C2)cc1OC (centres unmarked) [Example 64, 3-(3,4-Dimethoxy-benzenesulfonylamino)-1,2,3,4-tetrahydro-quinoline-6-carboxylic acid hydroxyamide] | 5.91 |  | −0.02 | 0.06 | 0.04
18 | O=C(NO)c1ccc2c(c1)CC(Nc1ccccn1)CC2 (centres unmarked) [Example 5, 7-(Pyridin-2-ylamino)-5,6,7,8-tetrahydro-naphthalene-2-carboxylic acid hydroxyamide] | 5.54 |  |  |  | 
19 | O=C(NO)c1ccc2c(c1)CC(NS(=O)(=O)c1ccc(Cl)cc1)CN2 (centres unmarked) [Example 60, 3-(4-Chloro-benzenesulfonylamino)-1,2,3,4-tetrahydro-quinoline-6-carboxylic acid hydroxyamide] | 5.84 |  | 0.46 | 0.10 | 0.04
20 | O=C(NO)c1ccc2c(c1)CC(NS(=O)(=O)c1cccc(Cl)c1)CN2 (centres unmarked) [Example 61, 3-(3-Chloro-benzenesulfonylamino)-1,2,3,4-tetrahydro-quinoline-6-carboxylic acid hydroxyamide] | 6.01 |  | 0.21 | 0.07 | 0.04
21 | O=C(NO)c1ccc2c(c1)CC(Nc1nccc(-c3ccc(Oc4ccccc4)cc3)n1)CC2 (centres unmarked) [Example 23, 7-[4-(4-Phenoxy-phenyl)-pyrimidin-2-ylamino]-5,6,7,8-tetrahydro-naphthalene-2-carboxylic acid hydroxyamide] | 5.84 |  | 0.30 | 0.00 | −0.10
